Marks after values point to notes of the source that are not given here.
Tests used:
[1] = Metabolic stability in porcine liver S9 fraction; assay type: in vitro ADME; conditions: 30 min; for stability porcine liver S9 fractions (percent of parent remaining): 37 °C, no NADPH added; for stability in the absence of BNNP (percent of parent remaining) / stability in the presence of BNNP (percent of parent remaining): porcine liver homogenate; for stability in the presence of BNNP (percent of parent remaining): carboxylesterase 1 inhibitor BNPP 1 mM
FAAH = molecular target: T1, FAAH (Rattus norvegicus, UniProt P97612); assay: Inhibition of fatty acid amide hydrolase; assay type: biochemical
T1 sequence (P97612 1-579): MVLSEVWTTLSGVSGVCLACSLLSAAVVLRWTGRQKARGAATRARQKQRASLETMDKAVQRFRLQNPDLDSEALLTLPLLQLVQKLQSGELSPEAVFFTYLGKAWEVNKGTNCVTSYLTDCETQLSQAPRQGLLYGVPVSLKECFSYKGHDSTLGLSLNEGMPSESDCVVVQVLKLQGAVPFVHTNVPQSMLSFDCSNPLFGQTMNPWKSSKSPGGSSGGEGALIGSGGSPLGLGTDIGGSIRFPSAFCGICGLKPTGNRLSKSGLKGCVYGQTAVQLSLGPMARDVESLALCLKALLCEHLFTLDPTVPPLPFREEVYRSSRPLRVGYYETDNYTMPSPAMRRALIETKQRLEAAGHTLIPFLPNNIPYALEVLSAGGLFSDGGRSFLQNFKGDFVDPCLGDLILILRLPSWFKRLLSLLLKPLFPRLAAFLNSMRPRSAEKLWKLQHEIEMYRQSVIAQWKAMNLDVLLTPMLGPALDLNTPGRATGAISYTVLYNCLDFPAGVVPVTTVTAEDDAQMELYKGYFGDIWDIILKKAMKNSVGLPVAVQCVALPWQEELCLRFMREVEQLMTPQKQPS

[2] = Metabolic stability in porcine blood plasma; assay type: in vitro ADME; conditions: for stability porcine blood plasma (percent of parent remaining): Table 3, 30 min, 37 °C, n = 3 unless otherwise stated; for metabolic stability porcine plasma (percent of parent remaining): Table 1, 30 min incubation, n = 3
[3] = Chemical stability in aqueous solution; assay type: physicochemical; conditions: for stability in PBS buffer (percent of parent remaining): PBS buffer pH 7.4 with 0.2% Triton X-100, 60 min, 37 °C
porcine albumin = porcine albumin (Sus scrofa, UniProt P08835); assay: Stability in porcine albumin solution; assay type: in vitro ADME; conditions: porcine albumin 17.5 mg/mL in PBS; 30 min, 37 °C
Sequence of porcine albumin (P08835 25-607): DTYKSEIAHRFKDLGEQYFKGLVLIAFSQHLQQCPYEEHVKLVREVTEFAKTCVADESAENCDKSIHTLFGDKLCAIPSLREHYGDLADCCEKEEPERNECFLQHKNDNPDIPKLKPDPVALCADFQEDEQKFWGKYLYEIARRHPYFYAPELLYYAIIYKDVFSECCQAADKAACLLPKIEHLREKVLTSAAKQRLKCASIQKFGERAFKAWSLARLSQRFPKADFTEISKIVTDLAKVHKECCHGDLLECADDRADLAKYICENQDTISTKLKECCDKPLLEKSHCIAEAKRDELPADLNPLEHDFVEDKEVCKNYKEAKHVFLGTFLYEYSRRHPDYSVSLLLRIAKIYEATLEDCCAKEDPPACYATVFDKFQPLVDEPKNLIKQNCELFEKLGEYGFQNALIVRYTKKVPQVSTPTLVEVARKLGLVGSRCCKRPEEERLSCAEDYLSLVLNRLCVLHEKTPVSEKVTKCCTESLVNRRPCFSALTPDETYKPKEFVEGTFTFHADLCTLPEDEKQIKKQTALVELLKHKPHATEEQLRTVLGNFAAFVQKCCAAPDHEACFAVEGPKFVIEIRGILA

[4] = Metabolic stability in rat liver S9 fraction; assay type: in vitro ADME; conditions: 30 min incubation in the presence of NADPH
human recombinant MAGL = molecular target: T2, human recombinant MAGL (Homo sapiens, UniProt Q99685); assay: Inhibition of monoacylglycerol lipase; assay type: biochemical
T2 sequence (Q99685 1-303): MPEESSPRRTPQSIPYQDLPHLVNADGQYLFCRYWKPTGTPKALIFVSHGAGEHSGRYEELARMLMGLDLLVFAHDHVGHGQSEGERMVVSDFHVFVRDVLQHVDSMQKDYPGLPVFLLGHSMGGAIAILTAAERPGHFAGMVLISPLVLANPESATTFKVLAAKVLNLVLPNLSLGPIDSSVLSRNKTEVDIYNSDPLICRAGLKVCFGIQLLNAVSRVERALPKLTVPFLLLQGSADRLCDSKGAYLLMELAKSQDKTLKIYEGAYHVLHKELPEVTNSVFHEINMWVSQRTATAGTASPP

## O=C(O)c1cccc(OC(=O)N2CCC(CCn3ccc4ccc(F)cc43)CC2)c1 [Compound 56]
[1]
  stability porcine liver S9 fractions (percent of parent remaining): 72 ± 7%
FAAH
  IC50: 27 nM
[2]
  stability porcine blood plasma (percent of parent remaining): >95%
[3]
  stability in PBS buffer (percent of parent remaining): >95%
Porcine albumin
  stability porcine albumin solution (percent of parent remaining): 94 ± 3%

## O=C(OC(C(F)(F)F)C(F)(F)F)N1CCN(Cc2ccc(C(F)(F)F)cc2N2CCCC2)CC1 [ABX-1431 (2), reference compound]
[1]
  stability porcine liver S9 fractions (percent of parent remaining): 81 ± 3%
[2]
  metabolic stability porcine plasma (percent of parent remaining): 95 ± 2%
  stability porcine blood plasma (percent of parent remaining): 95 ± 2%
[3]
  stability in PBS buffer (percent of parent remaining): 90 ± 5%
[4]
  metabolic stability rat liver S9 fraction (percent of parent remaining): 92 ± 2%
Porcine albumin
  stability porcine albumin solution (percent of parent remaining): 87 ± 6%

## O=C(O)c1ccc(OC(=O)N2CCC(CCn3ccc4ccc(F)cc43)CC2)cc1 [Compound 54, 4-({4-[2-(6-Fluoroindol-1-yl)ethyl]piperidine-1-carbonyl}oxy)benzoic Acid]
[1]
  stability porcine liver S9 fractions (percent of parent remaining): 66 ± 9%
FAAH
  IC50: 15 nM
[2]
  stability porcine blood plasma (percent of parent remaining): 94 ± 3%
[3]
  stability in PBS buffer (percent of parent remaining): >95%
Porcine albumin
  stability porcine albumin solution (percent of parent remaining): 93 ± 8%

## N#Cc1ccccc1OC(=O)NCCCCCn1ccc2ccc(F)cc21 [Compound 31]
[3]
  stability in PBS buffer (percent of parent remaining): 3 ± 2%

## O=C(NCCCCCn1ccc2ccc(F)cc21)Oc1cccnc1 [Compound 44]
[1]
  stability porcine liver S9 fractions (percent of parent remaining): 53 ± 7%
FAAH
  IC50: 2 nM
[2]
  stability porcine blood plasma (percent of parent remaining): <5%
[3]
  stability in PBS buffer (percent of parent remaining): 60 ± 2%
Porcine albumin
  stability porcine albumin solution (percent of parent remaining): 27 ± 3%
Human recombinant MAGL
  IC50: 170 nM

## O=C(NCCCCCn1ccc2ccc(F)cc21)Oc1ccccc1C(=O)O [Compound 37, 2-({[5-(6-Fluoroindol-1-yl)pentyl]carbamoyl}oxy)benzoic Acid]
[1]
  stability porcine liver S9 fractions (percent of parent remaining): 77 ± 3%
FAAH
  IC50: 38 nM
[2]
  stability porcine blood plasma (percent of parent remaining): 28 ± 4%
[3]
  stability in PBS buffer (percent of parent remaining): 73 ± 6%
Porcine albumin
  stability porcine albumin solution (percent of parent remaining): 74 ± 2%
Human recombinant MAGL
  IC50: 38 nM
Human recombinant MAGL; ratio of MAGL IC50 values
  factor by which MAGL activity exceeds reference inhibitor ABX-1431: 15

## O=C(O)c1ccccc1OC(=O)N1CCC(CCn2ccc3ccc(F)cc32)CC1 [Compound 58]
[1]
  stability porcine liver S9 fractions (percent of parent remaining): 72 ± 6%
FAAH
  IC50: 3500 nM
[2]
  stability porcine blood plasma (percent of parent remaining): >95%
[3]
  stability in PBS buffer (percent of parent remaining): >95%
Porcine albumin
  stability porcine albumin solution (percent of parent remaining): 89 ± 6%

## O=C(NCCCCCCCCn1ccc2ccc(F)cc21)Oc1ccccc1 [Compound 25, Phenyl N-[8-(6-Fluoroindol-1-yl)octyl]carbamate]
FAAH
  IC50: 130 nM
[2]
  metabolic stability porcine plasma (percent of parent remaining): 65 ± 2%
[4]
  metabolic stability rat liver S9 fraction (percent of parent remaining): 74 ± 5%

## CNC(=O)Oc1ccc2c(c1)[C@]1(C)CCN(C)[C@@H]1N2C [physostigmine, reference compound]
[1]
  stability porcine liver S9 fractions (percent of parent remaining): 57 ± 4%
[2]
  metabolic stability porcine plasma (percent of parent remaining): >95%
  stability porcine blood plasma (percent of parent remaining): >95%
[3]
  stability in PBS buffer (percent of parent remaining): >95%
[4]
  metabolic stability rat liver S9 fraction (percent of parent remaining): 76 ± 7%
Porcine albumin
  stability porcine albumin solution (percent of parent remaining): >95%

## N#Cc1cccc(OC(=O)NCCCCCn2ccc3ccc(F)cc32)c1 [Compound 30]
[1]
  stability porcine liver S9 fractions (percent of parent remaining): 49 ± 4%
FAAH
  IC50: 8 nM
[2]
  stability porcine blood plasma (percent of parent remaining): < 5%
[3]
  stability in PBS buffer (percent of parent remaining): 72 ± 3%
Porcine albumin
  stability porcine albumin solution (percent of parent remaining): <5%
Human recombinant MAGL
  IC50: 380 nM

## O=C(NCCCCCn1ccc2ccc(F)cc21)Oc1ccc(C(=O)O)cc1 [Compound 33, 4-({[5-(6-Fluoroindol-1-yl)pentyl]carbamoyl}oxy)benzoic Acid]
[1]
  stability porcine liver S9 fractions (percent of parent remaining): 59 ± 6%
  stability in the absence of BNNP (percent of parent remaining): 59 ± 6%
  stability in the presence of BNNP (percent of parent remaining): 81 ± 8%
FAAH
  IC50: 12 nM
[2]
  stability porcine blood plasma (percent of parent remaining): 37 ± 2%
[3]
  stability in PBS buffer (percent of parent remaining): >95%
Porcine albumin
  stability porcine albumin solution (percent of parent remaining): 90 ± 9%
Human recombinant MAGL
  IC50: 3300 nM

## N#Cc1ccc(OC(=O)NCCCCCn2ccc3ccc(F)cc32)cc1 [Compound 29, 4-Cyanophenyl N-[5-(6-Fluoroindol-1-yl)pentyl]carbamate]
[3]
  stability in PBS buffer (percent of parent remaining): 12 ± 3%
[3]; after 30 min at 37 °C, HPLC/MS
  cleavage in PBS buffer (pH 7.4) into the amine and 4-hydroxybenzonitrile: nearly totally cleaved

## Cc1ncccc1OC(=O)NCCCCCn1ccc2ccc(F)cc21 [Compound 45]
[1]
  stability porcine liver S9 fractions (percent of parent remaining): 65 ± 9%
FAAH
  IC50: 10 nM
[2]
  stability porcine blood plasma (percent of parent remaining): 23 ± 6%
[3]
  stability in PBS buffer (percent of parent remaining): 75 ± 4%
Porcine albumin
  stability porcine albumin solution (percent of parent remaining): 70 ± 8%
Human recombinant MAGL
  IC50: 140 nM

## O=C(NCCCCn1ccc2ccc(F)cc21)Oc1ccccc1 [Compound 11]
FAAH
  IC50: 470 nM
[2]
  metabolic stability porcine plasma (percent of parent remaining): 74 ± 2%
[4]
  metabolic stability rat liver S9 fraction (percent of parent remaining): 75 ± 6%

## O=C(NCCCCCCCn1ccc2ccc(F)cc21)Oc1ccccc1 [Compound 21]
FAAH
  IC50: 84 nM
[2]
  metabolic stability porcine plasma (percent of parent remaining): 34 ± 5%
[4]
  metabolic stability rat liver S9 fraction (percent of parent remaining): 74 ± 11%

## O=C(NCCCCCn1ccc2ccc(F)cc21)Oc1ccc(F)cc1 [Compound 26, 4-Fluorophenyl N-[5-(6-Fluoroindol-1-yl)pentyl]carbamate]
[1]
  stability porcine liver S9 fractions (percent of parent remaining): 69 ± 4%
FAAH
  IC50: 49 nM
[2]
  stability porcine blood plasma (percent of parent remaining): 59 ± 13^n = 6%
[3]
  stability in PBS buffer (percent of parent remaining): >95%
Porcine albumin
  stability porcine albumin solution (percent of parent remaining): 91 ± 6^n = 5%

## O=C(NCCCCCn1ccc2ccc(F)cc21)Oc1cccc2[nH]ccc12 [Compound 49, Indol-4-yl N-[5-(6-Fluoroindol-1-yl)pentyl]carbamate]
[1]
  stability porcine liver S9 fractions (percent of parent remaining): 78 ± 4%
FAAH
  IC50: 180 nM
FAAH; ratio of FAAH IC50 values
  decrease in FAAH inhibitory activity compared with compound 14: about 6 fold
[2]
  stability porcine blood plasma (percent of parent remaining): 80 ± 3%
[3]
  stability in PBS buffer (percent of parent remaining): >95%
Porcine albumin
  stability porcine albumin solution (percent of parent remaining): 81 ± 6%

## O=C(NCCCCCCn1ccc2ccc(F)cc21)Oc1ccccc1 [Compound 17]
FAAH
  IC50: 85 nM
[2]
  metabolic stability porcine plasma (percent of parent remaining): 55 ± 2%
[4]
  metabolic stability rat liver S9 fraction (percent of parent remaining): 73 ± 2%

## CCOC(=O)C1=C[C@@H](OC(CC)CC)[C@H](NC(C)=O)[C@@H](N)C1 [oseltamivir, reference compound]
[1]
  stability in the absence of BNNP (percent of parent remaining): 11 ± 2%
  stability in the presence of BNNP (percent of parent remaining): 97 ± 1%

## O=C(NCCCCCn1ccc2ccc(F)cc21)Oc1cccc(C(=O)O)c1 [Compound 35]
[1]
  stability porcine liver S9 fractions (percent of parent remaining): 74 ± 2%
FAAH
  IC50: 18 nM
[2]
  stability porcine blood plasma (percent of parent remaining): 78 ± 1%
[3]
  stability in PBS buffer (percent of parent remaining): >95%
Porcine albumin
  stability porcine albumin solution (percent of parent remaining): 93 ± 3%
Human recombinant MAGL
  IC50: > 10000 nM
Human recombinant MAGL; read-out: MAGL inhibition at 10 μM
  inhibition at 10 µM: 31%

## Cc1ccc(OC(=O)NCCCCCn2ccc3ccc(F)cc32)cn1 [Compound 48]
[1]
  stability porcine liver S9 fractions (percent of parent remaining): 51 ± 9%
FAAH
  IC50: 4 nM
[2]
  stability porcine blood plasma (percent of parent remaining): <5%
[3]
  stability in PBS buffer (percent of parent remaining): 82 ± 6%
Porcine albumin
  stability porcine albumin solution (percent of parent remaining): 62 ± 4%
Human recombinant MAGL
  IC50: 310 nM
